US20100292085A1, “Methods and compositions for characterization of HSD1 inhibitors” (priority 2005, published 2010)

How the values were obtained:
[1] = test system: off-target signature genes (SCD, DHCR7, ACLY, FBXO9, HEY1); assay: Off-target signature genes measured by RT-PCR (TAQman) in HepG2/HSD1 cells; format: cell-based, human
Method: HepG2 cells stably transfected with human HSD1, as previously described in Example 1, were plated in either 96 well or 24 well tissue culture plates. Cells were plated at a density of 6.25×10^5 cells/well on 24 well plates in 500 μl DMEM culture medium prepared as previously described. For the 96 well plates, the cells were plated at a density of 1×10^5 cells per well in 100 μl culture medium. The cells were incubated at 37° C. in a 5% CO2 atmosphere. After 24 hours, the culture medium was removed and the cells were pre-incubated with, either 250 μl (24 well plate) or 50 μl (96 well plate), Culture Medium containing 2× concentration of HSD1 inhibitor (14 μM) or vehicle for 20 min at 37° C. in a 5% CO2 atmosphere. Culture Medium (either 250 μl or 50 μl) containing 1000 nM cortisone (500 nM final concentration) or vehicle, and 20 μM forskolin (10 μM final concentration), was next added to the cells. The cells were further incubated for 20 hrs at 37° C. in a 5% CO2 atmosphere. […]
Oligonucleotide probes were labeled with the 6-FAM fluorophore at the 5′ end (FAM) and a non-fluorescent quencher at the 3′ end (NFQ). […] The levels of mRNA were normalized to the amount of 18S RNA detected in each sample using the Eukaryotic 18S rRNA Endogenous Control from Applied Biosystems. Levels of the target mRNAs in treated cells were calculated relative to the untreated cells.

[2] = target: T1, HSD1 (Homo sapiens, UniProt P28845); assay: HSD1 signature reversal activity: microarray of cortisone signature genes in HepG2/HSD1 cells; format: cell-based; design: expressed in transfected cells; conditions: slope of linear regression vs cortisone treatment alone (1.0 = no inhibition), Table 2 genes, 500 nM cortisone, 10 μM forskolin, inhibitor added as 2× concentration (14 μM), 20 hrs
Method: HepG2 human hepatoma cells stably transfected with human 11βHSD1 (HepG2/HSD1 cells) were plated at 2×10^6 cells per well on 6-well plates in 1 ml Culture Medium (DMEM with 2 mM L-Glutamine, 10% charcoal-dextran-treated FBS, 100 U/ml Penicillin, 100 μg/ml streptomycin, 10 μM sodium pyruvate, 100 μM non-essential amino acids, 0.003 N NaOH) at 37° C./5% CO2. After 24 hours, the Culture Medium was replaced with 500 μl Culture Medium containing 1000 nM cortisone (500 nM final concentration) and 20 μM forskolin (10 μM final concentration). The cells were incubated for 20 hrs at 37° C./5% CO2. Samples were run in triplicates. […]
(§1) After hybridization, arrays were scanned and fluorescence intensities for each probe were recorded. […] For each gene sequence present on the microarrays, statistical significance of differential gene expression was determined by calculating P values according to the following equation: […]
Gene expression changes in the cortisone signature genes were analyzed to further assess the degree to which HSD1-agents cause a reversal in the magnitude of the cortisone signature due to the degree of inhibition of HSD1 activity. Gene expression levels of the cortisone signature genes were measured in cortisone treated HepG2/HSD1 cells and HepG2/HSD1 cells treated with an HSD1-agent affecting HSD1 activity. […]

[3] = target: T1, HSD1; assay: Cortisone signature genes measured by RT-PCR (TAQman) in HepG2/HSD1 cells; format: cell-based; design: expressed in transfected cells
Method: HepG2 cells stably transfected with human HSD1, as previously described in Example 1, were plated in either 96 well or 24 well tissue culture plates. Cells were plated at a density of 6.25×10^5 cells/well on 24 well plates in 500 μl DMEM culture medium prepared as previously described. For the 96 well plates, the cells were plated at a density of 1×10^5 cells per well in 100 μl culture medium. The cells were incubated at 37° C. in a 5% CO2 atmosphere. After 24 hours, the culture medium was removed and the cells were pre-incubated with, either 250 μl (24 well plate) or 50 μl (96 well plate), Culture Medium containing 2× concentration of HSD1 inhibitor (14 μM) or vehicle for 20 min at 37° C. in a 5% CO2 atmosphere. Culture Medium (either 250 μl or 50 μl) containing 1000 nM cortisone (500 nM final concentration) or vehicle, and 20 μM forskolin (10 μM final concentration), was next added to the cells. The cells were further incubated for 20 hrs at 37° C. in a 5% CO2 atmosphere. All conditions were run in duplicates.
HepG2/HSD1 cells were lysed using Trizol reagent (Life Technologies, Grand Island, N.Y.). Total RNA was isolated from HepG2/HSD1 lysate using the RNeasy 96-Kit (Qiagen Inc., Valencia, Calif.) following the manufacturer's instructions, including the optional on-column removal of contaminating DNA step by RNase-free DNase I treatment. The RNA was reverse-transcribed to single stranded cDNA using random hexamer primers with TAQman reverse transcription reagents (Applied Biosystems, Foster City, Calif.).
The sequences of the TAQman primers and probes used to detect the target cDNAs were synthesized by Qiagen Operon (Alameda, Calif.) and are shown in Tables 8 and 9.
Oligonucleotide probes were labeled with the 6-FAM fluorophore at the 5′ end (FAM) and a non-fluorescent quencher at the 3′ end (NFQ). Real-time PCR was performed on human HepG2/HSD1 cDNA using the TaqMan Universal PCR Master Mix (Applied Biosystems, Foster City, Calif.) and appropriate primer/probe sets on an ABI Prism 7900HT Sequence Detection System (Applied Biosystems, Foster City, Calif.) in the 384-well format according to manufacturer's instructions. The levels of mRNA were normalized to the amount of 18S RNA detected in each sample using the Eukaryotic 18S rRNA Endogenous Control from Applied Biosystems. Levels of the target mRNAs in treated cells were calculated relative to the untreated cells.

[4] = target: T1, HSD1; assay: Direct measurement of HSD1 activity: 3H-cortisone conversion to cortisol by HPLC; format: cell-based; design: expressed in transfected cells
Method: Oxidoreductase Method: [1,2-^3H]-cortisone (48.7 Ci/mmol) was added to a final concentration of 20 nM to HepG2/HSD1 (2×10^6 cells/well in 6-well plates) and incubated for 1.5, 3, 6 and 22 hrs at 37° C. in culture medium (Dulbecco's Modified Eagle Medium with high glucose containing 2 mM L-glutamine, 10% fetal bovine serum, 100 U/ml penicillin, 100 μg/ml Streptomycin, 10 μM sodium pyruvate, 100 μM non-essential amino acids, 0.003 N NaOH and 0.8 mg/ml Geneticin). The samples (100 μl aliquots) were then extracted with 300 μl ethyl acetate and the upper, organic phases were dried. The dried organic extracts were then resuspended either in 100 μl DMSO for analysis by reverse-phase HPLC (buffer A=10% methanol/90% water; buffer B=90% methanol/10% water using a gradient from 20-45% Buffer B; YMC Combiscreen Pro C18 50 mm×4.6 mm column; flow rate 2.5 mL/min).
HSD1 activity was measured by spiking the incubation medium with ^3H-cortisone. After 21 hrs post compound treatment, conversion of the cortisone to cortisol was assessed by HPLC analysis.

[5] = test system: HepG2/HSD1 cells; assay: Off-target effects by microarray: number of genes changed, no cortisone; format: cell-based, human; conditions: number of genes changed vs forskolin alone
Method: (§2) Total RNA isolated from cultured cell samples was used to make fluorescently labeled cRNA that was hybridized to DNA oligonucleotide microarrays as described previously (Hughes et al., supra., Marton et al., 1998, Nat. Med. 4:1293-301). Briefly, 4 μg of total RNA from each cell culture sample was used to synthesize dsDNA through RT. cRNA was produced by in vitro transcription and labeled postsynthetically with Cy3 or Cy5. Two populations oflabeled cRNA, a control population from vehicle/forskolin treated cells and an experimental population, i.e., cortisone/forskolin plus vehicle or plus HSD1 test compound, were compared with each other by competitive hybridization to microarrays. Two hybridizations were done with each cRNA sample pair using a fluorescent dye reversal strategy.
The human microarrays used in this study contained 23,653 oligonucleotide probes corresponding to individual genes or expressed sequence tags. […]
as §1
HSD1 compounds were evaluated using microarray gene expression measurements obtained from HepG2/HSD1 cells under conditions where the cells were not treated with cortisone. […]

[6] = test system: HepG2/HSD1 cells; assay: Identification of the off-target response signature by microarray (Table 6); format: cell-based, human
Excerpt: This off-target gene signature was not detected in other active HSD1 inhibitor compounds with in vivo efficacy. Monitoring for the off-target signature identified by 3-(2-chlorophenyl)-4-methyl-5-(4-pentylbicyclo[2.2.2]oct-1-yl)-4H-1,2,4-triazole in the HepG2 cells over-expressing HSD1 can improve characterization and selection of candidate HSD1 compounds prior to in vivo efficacy testing.
as §2, with “strategy. […]” for “strategy.”

[7] = target: T1, HSD1; assay: In vivo efficacy of HSD1 inhibitor; design: host or cells: in vivo
[8] = test system: SCD; assay: Off-target activity by SCD expression level (microarray); format: cell-based, human; conditions: HepG2/HSD1 cells, 10 μM forskolin, no cortisone, vs forskolin alone; microarray probe
Method: as §2
Each HSD1 inhibitor compound treated sample was compared to a forskolin alone cell sample. The HepG2/HSD1 cells used in these experiments were not contacted with cortisone.

[9] = RT-PCR, 500 nM cortisone + 10 μM forskolin, 20 hrs, inhibitor added as 2× concentration (14 μM)

T1 sequence (P28845 whole entry): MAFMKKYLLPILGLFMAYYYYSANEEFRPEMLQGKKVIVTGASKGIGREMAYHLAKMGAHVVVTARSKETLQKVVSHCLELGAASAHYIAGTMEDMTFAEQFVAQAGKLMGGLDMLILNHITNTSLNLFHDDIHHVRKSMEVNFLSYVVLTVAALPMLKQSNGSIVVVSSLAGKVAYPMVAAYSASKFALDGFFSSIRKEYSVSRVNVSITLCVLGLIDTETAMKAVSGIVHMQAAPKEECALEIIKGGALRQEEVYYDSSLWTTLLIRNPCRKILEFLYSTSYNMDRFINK

SMILES: CCCCCC12CCC(c3nnc(-c4ccccc4Cl)n3C)(CC1)CC2 [3-(2-chlorophenyl)-4-methyl-5-(4-pentylbicyclo[2.2.2]oct-1-yl)-4H-1,2,4-triazole]
- Average of five genes (off-target signature, Fold Change Relative to Vehicle Alone) [1]: 1.7 Fold Change
- HSD1 Signature Reversal Activity Values [2]: 0.03
- G6PC Gene Transcript (Fold Change Relative to Vehicle Alone) [3, 9]: 1.0 Fold Change
- Homer-2 Gene Transcript (Fold Change Relative to Vehicle Alone) [3, 9]: 1.5 Fold Change
- LIPG Gene Transcript (Fold Change Relative to Vehicle Alone) [3, 9]: 2.7 Fold Change
- PGC Gene Transcript (Fold Change Relative to Vehicle Alone) [3, 9]: 0.7 Fold Change
- TAT Gene Transcript (Fold Change Relative to Vehicle Alone) [3, 9]: 1.2 Fold Change
- Average of five genes (cortisone signature, Fold Change Relative to Vehicle Alone) ([3]; average of Homer-2, G6PC, PGC, TAT, LIPG): 1.4 Fold Change
- Percent Conversion to Cortisol ([4]; 3H-cortisone spiked medium, 21 hrs post compound treatment, cortisone/forskolin, HPLC): 2%
- Percent Conversion to Cortisol normalized to cortisone/forskolin value ([4]; value in square brackets, cortisone/forskolin alone = 1.0): 0.05
- off-target activity (in words, from Table 5 microarray data) [5]: high levels of off-target activity
- off-target signature (Table 6) in HepG2 cell line over-expressing HSD1 (in words) ([6]; independent of cortisone treatment): exhibited off-target activity
- off-target response signature, number of gene markers ([6]; p-value<0.01, no fold change cut-off, common to three replicate studies, compound + forskolin): 330
- efficacy in vivo (in words) [7]: failed to achieve significant efficacy in vivo
- Log ratio of SCD gene expression [8]: 0.45
